Data reported in patent publication US20070003671A1, “Two-part calcium fortified compositions and methods of making the same” (priority 2005, published 2007).

What was measured:
Type in all cases: physicochemical
[1] = Calcium salts, physical/chemical attributes in orange juice, 450 mg/100 mL calcium load; settings: for Brix/Acid Ratio: unfortified juice 18.3
From the text: (§1) The flavor of orange juice, for example, can be characterized by a unique balance of sweetness resulting from the sugar content and tartness resulting from the acid content. A challenge of fortifying orange juice with nutritionally significant amounts of calcium is maintaining the sweet to tart balance. This balance can be expressed analytically as the Brix to acid ratio, as described above. The Brix component of the ratio is the measure of soluble solids in the composition often determined by a refractometer. The acid component can be determined by titration with a base such as sodium hydroxide. The Brix to acid ratio is an analytical representation or measure of the sweet to tart taste balance.
A variety of calcium salts, i.e., calcium components, were evaluated to determine their effects on the Brix-acid ratio. In this evaluation, orange juices fortified with different calcium salts were prepared at 450 mg/100 mL of calcium load.

[2] = Calcium salts, physical/chemical attributes in orange juice, 350 mg/100 mL calcium load; settings: for Brix/Acid Ratio: unfortified juice 18.3
From the text: as §1
A variety of calcium salts, i.e., calcium components, were again evaluated to determine their effects on the Brix-acid ratio but this time at 350 mg/100 mL calcium load.

[3] = pH of a 20% slurry in water
From the text: Titratable acidity and pH can be used as measures of sour perception in, e.g., beverage applications. It is well known that acidity provides a flavor lift or increased perception of flavor in a beverage.

| Compound | Brix (48 Hours) [1] | Calcium - Juice (48 Hours) [1] [mg/100 mL] | Titratable Acidity (%) (48 Hours) [1] | pH (48 Hours) [1] | Brix/Acid Ratio [1] | Brix (48 hrs) [2] | Calcium in Juice (48 hrs) [2] [mg/100 mL] | Titratable Acidity (%) (48 hrs) [2] | pH (48 hrs) [2] | Brix/Acid Ratio [2] | pH of slurry [3] |
| --- | --- | --- | --- | --- | --- | --- | --- | --- | --- | --- | --- |
| O=C([O-])CC(O)(CC(=O)[O-])C(=O)[O-].O=C([O-])CC(O)(CC(=O)[O-])C(=O)[O-].[Ca+2].[Ca+2].[Ca+2] [tri-calcium citrate] | 12.08 | 177 | 0.630 | 4.07 | 19.2 | 12.37 | 140 | 0.640 | 4.06 | 19.3 | – |
| N[C@@H](CCC(=O)[O-])C(=O)[O-].O.O.O.O.[Ca+2] [calcium L-glutamate tetrahydrate] | 13.81 | 207 | 0.627 | 4.47 | 22.0 | 13.41 | 161 | 0.621 | 4.42 | 21.6 | – |
| O=C[O-].O=C[O-].[Ca+2] [calcium formate] | 12.59 | 206 | 0.620 | 4.20 | 20.3 | 12.45 | 160 | 0.620 | 4.18 | 20.1 | – |
| O.O=C([O-])CCC(=O)[O-].[Ca+2] [calcium succinate monohydrate] | 12.85 | 206 | 0.607 | 4.66 | 21.2 | 12.64 | 161 | 0.606 | 4.56 | 20.9 | – |
| calcium gluconate monohydrate | 13.91 | 198 | 0.653 | 4.00 | 21.3 | 13.56 | 154 | 0.640 | 3.99 | 21.2 | – |
| O=P([O-])([O-])[O-].O=P([O-])([O-])[O-].[Ca+2].[Ca+2].[Ca+2] [tricalcium phosphate (fine), tricalcium phosphate] | 12.30 | 197 | 0.484 | 4.51 | 25.4 | 12.27 | 157 | 0.490 | 4.49 | 25.0 | – |
| O=P([O-])([O-])O.[Ca+2] [dicalcium phosphate anhydrous] | 12.04 | 203 | 0.674 | 4.04 | 17.8 | 11.97 | 156 | 0.677 | 4.04 | 17.6 | approximately 5.0 |
| calcium aspartate | 13.42 | 187 | 0.610 | 4.28 | 22.0 | 13.11 | 159 | 0.617 | 4.24 | 21.2 | – |
| O.O=P([O-])(O)O.O=P([O-])(O)O.[Ca+2] [monocalcium phosphate monohydrate] | 12.92 | 207 | 1.238 | 3.69 | 10.4 | 12.53 | 164 | 1.083 | 3.76 | 11.6 | – |
| O=C([O-])CC(O)C(=O)[O-].[Ca+2] (stereo not drawn) [calcium malate] | 12.80 | 213 | 0.641 | 4.17 | 20.0 | 12.54 | 166 | 0.635 | 4.15 | 19.7 | – |
| CC(O)C(=O)[O-].CC(O)C(=O)[O-].O.O.O.O.O.[Ca+2] (stereo not drawn) [calcium lactate pentahydrate] | 13.01 | 204 | 0.657 | 4.03 | 19.8 | 12.80 | 157 | 0.670 | 4.01 | 19.1 | – |
| O=P([O-])([O-])[O-].O=P([O-])([O-])[O-].[Ca+2].[Ca+2].[Ca+2] [tricalcium phosphate] | 12.40 | 182 | 0.561 | 4.37 | 22.1 | 12.39 | 147 | 0.530 | 4.34 | 23.4 | – |
| O.O.O=C([O-])[C@H](O)[C@@H](O)C(=O)[O-].[Ca+2] [calcium L-tartrate dihydrate] | 12.02 | 140 | 0.545 | 4.23 | 22.1 | 11.99 | 113 | 0.574 | 4.17 | 20.9 | – |
| O.O.O=P([O-])([O-])O.[Ca+2] [dicalcium phosphate dihydrate] | 12.26 | 181 | 0.682 | 4.21 | 18.0 | 12.33 | 141 | 0.667 | 4.17 | 18.5 | 7.4 |
| O.O.[Ca+2].[Cl-].[Cl-] [calcium chloride dihydrate] | 12.70 | 206 | 0.620 | 3.84 | 20.5 | 12.54 | 163 | 0.618 | 3.88 | 20.3 | – |
| O.O=P([O-])([O-])OCC(O)CO.[Ca+2] (stereo not drawn) [calcium glycerophosphate monohydrate] | 12.73 | 187 | 0.598 | 4.50 | 21.3 | 12.54 | 145 | 0.602 | 4.42 | 20.8 | – |
| calcium ascorbate dihydrate | 13.99 | 195 | 0.648 | 4.23 | 21.6 | 13.41 | 160 | 0.618 | 4.16 | 21.7 | – |
| O.O.O.O=C([O-])/C=C/C(=O)[O-].[Ca+2] [calcium fumarate trihydrate] | 12.96 | 202 | 0.659 | 4.01 | 19.7 | 13.56 | 158 | 0.643 | 3.99 | 21.1 | – |
| O=C([O-])[O-].[Ca+2] [calcium carbonate] | 12.44 | 200 | 0.099 | 5.88 | 125.7 | 12.35 | 158 | 0.188 | 5.15 | 65.7 | – |
